Measured values reported in US9428568B2, “Compositions and methods for modulating cell-cell fusion via intermediate-conductance calcium-activated potassium channels” (BOEHRINGER INGELHEIM INTERNATIONAL GMBH, priority 2008, dated 2016).
Entries after “also recorded” stand apart in the source; their conditions may differ. Read-outs that look alike come from different tables or passages of the source.

Columns and labels:
[1] = test system: bone marrow-derived macrophages from WT mice; assay: Osteoclastogenesis / cell fusion of bone marrow-derived macrophages of WT mice under M-CSF+RANKL (TRAP+ osteoclast-like cells); assay type: cell-based, mouse
Source text: Bone marrow- and spleen-derived mouse osteoclasts. These cells were generated from four- to twelve-week-old sk4^+/+ and sk4^−/− mice as previously described (Cui et al. (2007) Proc. Natl. Acad. Sci. USA 104:14436-14441; Epub 2007 Aug. 28). Bone marrow and spleen cells were isolated, mechanically dissociated and cultured at a density of 1.33×10^6 cells per cm^2 in MEM containing 10% heat-inactivated fetal bovine serum (HyClone, Logan, Utah), 100 units/ml penicillin-streptomycin (Gibco Invitrogen, Carlsbad, Calif.), 1% MEM vitamins, 1% glutamine, and 30 ng/ml M-CSF (PeproTech, Inc. Rocky Hill, N.J.). RANKL (PeproTech, Inc.) was added at a concentration of 40 ng/ml. Media was changed every three days. To assess the formation of an actin ring, a landmark of osteoclast activity, cells were cultured in the presence of M-CSF (20 ng/ml) and RANKL (40 ng/ml) on glass slides for 8 days, fixed and reacted with phalloidin-Alexa 568 and Topro-3. To further assess resorptive activity, cells were cultured on Osteologic slides that are coated with artificial bone made of calcium-phosphate crystals. After 8 days, cells were lysed and the substrates stained with silver nitrate according to the supplier's instructions. The resorbed areas on slides were recorded by histomorphometry.

human PBMCs = assay: Human osteoclastogenesis / cell fusion of PBMCs under M-CSF+RANKL stimulation (TRAP+ osteoclast-like cells); assay type: cell-based; details: for IC50: PBMC, read-out: inhibition of cell fusion, IC50; for osteoclast number / osteoclast surface area: dose-dependent
Protocol: Human osteoclasts. These cells were generated using normal peripheral blood blood (Allcells, Emeryville, Calif.). Peripheral blood monocytes were isolated using Ficoll-Paque and cultured at a concentration of 3×10^6 cells/ml in MEME supplemented with 10% FCS, recombinant human M-CSF (25 ng/ml) and recombinant human RANKL (40 ng/ml). The medium was changed once a week.

SK4 channels = SK4 channels (Homo sapiens, UniProt O15554); details: cited from earlier work
[2] = general statement in the definition of SK4 channels

NC(=O)C(c1ccccc1)(c1ccc(F)cc1)c1ccc(F)cc1 [ICA-17043, 2,2-bis(4-fluorophenyl)-2-phenylacetamide]
osteoclastogenesis (surface area of TRAP+ osteoclast-like cells, POC relative to no compound control) ([1]; bone marrow-derived macrophages of WT (SK4+/+) mice, FIGS. 7A-B, five replicates): attenuated osteoclastogenesis in a dose dependent manner; also recorded: prevent osteoclastogenesis in a dose-dependent manner | concentration at which cell fusion was significantly inhibited (TRAP-stained images) ([1]; bone marrow-derived macrophages of WT mice, FIG. 7C): 0.36 µM | human osteoclastogenesis in vitro (surface area of TRAP+ osteoclast-like cells, POC relative to no compound control) (human PBMCs; FIGS. 10A-B, four replicates): inhibited human osteoclastogenesis in vitro in a dose-dependent manner; also recorded: prevent osteoclastogenesis in a dose-dependent manner | IC50 (human PBMCs; FIGS. 10A-B): 300 nM | osteoclast number (human PBMCs): decreased | osteoclast surface area (human PBMCs): decreased

Clc1ccccc1C(c1ccccc1)(c1ccccc1)n1cccn1 [TRAM-34, 1-[(2-chlorophenyl)diphenylmethyl]-1H-pyrazole]
IC50 (human PBMCs; FIGS. 10A-B): 800 nM | osteoclast number (human PBMCs): decreased | osteoclast surface area (human PBMCs): decreased

Clc1ccccc1C(c1ccccc1)(c1ccccc1)n1ccnc1 [clotrimazole, 1-[(2-chlorophenyl)-diphenylmethyl]-1H-imidazole]
block of SK4 channels (SK4 channels): blocked

CC(=O)N1CCN(c2ccc(OCC3COC(Cn4ccnc4)(c4ccc(Cl)cc4Cl)O3)cc2)CC1 (stereo not shown) [ketoconazole]
block of SK4 channels (SK4 channels; [2]): not blocked

charybdotoxin
block of SK4 channels (SK4 channels; [2]): blocked

iberiotoxin
block of SK4 channels (SK4 channels; [2]): not blocked
